Assay results published in US6462055B2, “Alpha-methylbenzyl-containing thiourea inhibitors of herpes viruses containing a phenylenediamine group” (Wyeth, priority 1998, dated 2002).
Converted amounts (≈) assume the structure as drawn.

What was measured:
[1] = tested on: HSV-1; assay: HSV Antiviral (ELISA) Assay in Vero cells; type: cell-based, herpes simplex virus type 1; settings: HSV-1, Vero cells; for IC50: Human alphaherpesvirus 1, read-out: IC50 (ug/ml) HSV
Method in brief: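 Viral replication was quantified by cell-fixed ELISA for HSV glycoprotein D, using a β-galactosidase reporter and fluorogenic umbelliferyl substrate, about 24 h after HSV-1 infection (MOI 0.006) of Vero cells. Compounds, at several concentrations, were added 30 min pre-infection. IC50 was derived from fluorescence relative to the compound-free signal.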

[2] = tested on: HCMV recombinant mutant virus (RV145); assay: microbe, parasite or virus in culture; type: cell-based, human cytomegalovirus; settings: for IC50: Human betaherpesvirus 5, read-out: IC50 ug/ml HCMV, HCMV
Text: Microtiter plate assay. Ninety-six well plate cultures of human foreskin fibroblasts are infected in the presence of inhibitor compound with a HCMV recombinant mutant virus whose genome contains the prokaryotic beta-glucuronidase gene (Jefferson, R. A., S. M. Burgess, and D. Hirsh. 1986. Beta-glucuronidase from Escherichia coli as a gene fusion marker. Proc. Natl. Acad. Sci. USA 83:8447-8451) whose expression is controlled by a viral promoter. An example of such a virus is RV145 (Jones, T. R., V. P. Muzithras, and Y. Gluzman. 1991. Replacement mutagenesis of the human cytomegalovirus genome: US10 and US11 gene products are nonessential. J. Virol. 65:5860-5872). Since it is under the control of a viral promoter, beta-glucuronidase expression is an indirect indicator of growth and replication of HCMV in this assay. At 96 hours post-infection, the infected cell lysates are prepared (using 50 mM sodium phosphate [pH7.0]containing 0.1% Triton X-100 and 0.1% sarkosyl) and assayed for beta-glucuronidase activity using a substrate for the enzyme which when cleaved yields either a product which can be measured […] in a spectrophotometer or fluorescently in a microfluorimeter. Examples of such substrates are p-nitrophenyl-beta-D-glucuronide and methylumbelliferylglucuronide, respectively. The presence of an antiviral compound is indicated by the reduced expression of the HCMV genome resident beta-glucuronidase gene, compared to the absence of inhibitor. […] Data from this assay generated using varying amounts of inhibitor compound is also used to estimate the IC50 of an inhibitor compound.

[3] = tested on: VZV strain Ellen; assay: VZV Antiviral (ELISA) Assay in human foreskin fibroblast cells; type: cell-based, varicella-zoster virus; settings: for IC50: read-out: IC50 (ug/ml) VZV
Method in brief: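 HFF cells infected with VZV Ellen at low multiplicity (<0.1) overnight were seeded at 3.5×10^4 cells/well in DMEM with 2% FBS plus compound and incubated three days at 37° C., 5% CO2. Viral replication was read by ELISA against glycoprotein II with β-galactosidase fluorogenic readout (ex 365/em 450 nm); IC50 relative to no-compound fluorescence.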

[4] = Human alphaherpesvirus 3, Fibroblast

SMILES | IC50 (ug/ml) HSV [1] | IC50 ug/ml HCMV [2] | IC50 (ug/ml) VZV [3] | % inhibition 10 ug/ml VZV [3] | IC50 [1] | IC50 [2] | IC50 [3, 4] | inhibition at 10 µg/mL ([3]; Human alphaherpesvirus 3, Fibroblast, read-out: % inhibition 10 ug/ml VZV, 10 ug/ml)
CN(C)c1cc(CNC(=S)Nc2ccc(NC(=O)c3ccccc3F)cc2)cc(C(F)(F)F)c1 [Example 636] | >10 µg/mL | >10 µg/mL | 5 µg/mL (≈ 10.2 µM) | – | – | – | – | –
COc1c(Cl)cc(NC(=S)Nc2ccc(NC(=O)c3ccc(F)cc3)cc2)cc1Cl [Example 133] | 7 µg/mL (≈ 15.1 µM) | 0.6 µg/mL (≈ 1.29 µM) | >10 µg/mL | 36% | – | – | – | –
COc1ccccc1C(=O)Nc1ccc(NC(=S)NC(C)c2ccc(Br)cc2)cc1 (stereo not drawn) [Example 1019, N-(4-{3-[1-(4-Bromo-phenyl)-ethyl]-thioureido}-phenyl)-2-methoxy-benzamide] | – | – | – | – | > 10 µg/mL | 2.6 µg/mL (≈ 5.37 µM) | 0.05 µg/mL (≈ 0.103 µM) | –
CCCCSc1ccc(NC(=S)Nc2ccc(NC(=O)c3ccccc3F)cc2)cc1Cl [Example 387] | >10 µg/mL | >10 µg/mL | >10 µg/mL | 26% | – | – | – | –
CC(N=[N+]=[N-])c1ccc(NC(=S)Nc2ccc(NC(=O)c3ccccc3F)cc2)cc1Cl (stereo not drawn) [Example 492] | >10 µg/mL | 2 µg/mL (≈ 4.26 µM) | >10 µg/mL | 32% | – | – | – | –
COc1cc(OC)c(NC(=S)Nc2ccc(NC(=O)c3cccc(NC(C)=O)c3)cc2)cc1Cl [Example 134] | > 10 µg/mL | 4 µg/mL (≈ 8.02 µM) | >10 µg/mL | 50% | – | – | – | –
CN1CCC(N(C)c2ccc(NC(=S)Nc3ccc(NC(=O)c4c(F)cccc4F)cc3)cc2Cl)CC1 [Example 340] | 3 µg/mL (≈ 5.51 µM) | 0.25 µg/mL (≈ 0.459 µM) | 4 µg/mL (≈ 7.35 µM) | 99% | – | – | – | –
O=C(O)c1cccc(NC(=S)Nc2ccc(NC(=O)c3ccccc3F)cc2)c1 [Example 963, 3-{3-[4-(2-Fluoro-benzoylamino)-phenyl]-thioureido}-benzoic acid] | – | – | – | – | > 10 µg/mL | > 10 µg/mL | > 10 µg/mL | 30%
O=C(CN1CCSCC1)Nc1ccc(NC(=S)Nc2ccc(NC(=O)c3ccccc3F)cc2)cc1Cl [Example 407] | 4 µg/mL (≈ 7.17 µM) | >10 µg/mL | 0.7 µg/mL (≈ 1.25 µM) | 87% | – | – | – | –
COc1cc(OC)c(NC(=S)Nc2ccc(NC(=O)c3cccc(OC(C)=O)c3)cc2)cc1Cl [Example 253] | 1.2 µg/mL (≈ 2.4 µM) | 8 µg/mL (≈ 16 µM) | 6 µg/mL (≈ 12 µM) | 100% | – | – | – | –
N#Cc1cccc(NC(=S)Nc2ccc(NC(=O)c3ccccc3F)cc2)c1 [Example 461] | >10 µg/mL | >10 µg/mL | >10 µg/mL | 33% | – | – | – | –
COc1cc(C)c(Cl)cc1NC(=S)Nc1ccc(NC(=O)c2ccccc2F)cc1Cl [Example 458] | 0.06 µg/mL (≈ 0.125 µM) | >10 µg/mL | >10 µg/mL | 25% | – | – | – | –
CC(NC(=S)Nc1ccc(NC(=O)c2ccccc2F)cc1)c1cccc(N(C)C)c1 (stereo not drawn) [Example 794] | 7 µg/mL (≈ 16 µM) | 6.2 µg/mL (≈ 14.2 µM) | 0.4 µg/mL (≈ 0.916 µM) | – | – | – | – | –
COc1cc(OC)c(NC(=S)Nc2ccc(NC(=O)c3ccccc3O)cc2)cc1Cl [Example 139] | 6 µg/mL (≈ 13.1 µM) | 6 µg/mL (≈ 13.1 µM) | 4 µg/mL (≈ 8.73 µM) | 95% | – | – | – | –
O=C(Nc1ccc(NC(=S)NCc2cc(C(F)(F)F)cc(C(F)(F)F)c2)cc1)c1ccccc1F [Example 543] | >10 µg/mL | 0.3 µg/mL (≈ 0.582 µM) | >10 µg/mL | – | – | – | – | –
COc1cc(OC)c(NC(=S)Nc2ccc(NC(=O)c3cccc(OC(F)(F)F)c3)cc2)cc1Cl [Example 256] | 2 µg/mL (≈ 3.8 µM) | 9 µg/mL (≈ 17.1 µM) | >10 µg/mL | 15% | – | – | – | –
CC(NC(=S)Nc1ccc(NC(=O)c2cc3ccccc3cn2)cc1)c1cc2ccccc2o1 (stereo not drawn) [Example 985, Isoquinoline-3-carboxylic acid {4-[3-(1-benzofuran-2-yl-ethyl)-thioureido]-phenyl}-amide] | – | – | – | – | > 10 µg/mL | > 10 µg/mL | 0.035 µg/mL (≈ 0.075 µM) | –
